In patent US12371454B2, “Cyclic peptide compound having Kras inhibitory action” (priority 2019, dated 2025):
Starred links: 1 amine or outer side, 2 acyl side, 3 side chain; linkers in the order of their positions; H or OH if unused. Positions of bridges follow the written chain, without caps; N, C: chain ends. Non-standard residues stand in square brackets, D forms with d. Residues, ends and D or L forms follow the SMILES beside them. *: point of attachment. hPhe(3-Cl-4-CF3) = N[C@@H](CCc1ccc(C(F)(F)F)c(Cl)c1)C(=O)O; NMePhe(3-Br) = CN[C@@H](Cc1cccc(Br)c1)C(=O)O; NMePhe(4-Me) = CN[C@@H](Cc1ccc(C)cc1)C(=O)O; NMePhe(4-F) = CN[C@@H](Cc1ccc(F)cc1)C(=O)O; NMedβ3hAla = C[C@H](CC(=O)[*:2])N(C)[*:1]; NMePhe(2-F) = CN[C@@H](Cc1ccccc1F)C(=O)O; NMehPhe = CN[C@@H](CCc1ccccc1)C(=O)O; NMeY = CN[C@@H](Cc1ccc(O)cc1)C(=O)O; NMeCha = CN[C@@H](CC1CCCCC1)C(=O)O; NMeF = CN[C@@H](Cc1ccccc1)C(=O)O; NMeD = CN[C@@H](CC(=O)O)C(=O)O; NMeL = CN[C@@H](CC(C)C)C(=O)O; NMeV = CN[C@H](C(=O)O)C(C)C; d(β3hA) = C[C@@H](N)CC(=O)O; NMeAbu = CC[C@H](NC)C(=O)O; NMeA = CN[C@@H](C)C(=O)O; Piperidide = C1CCN(*)CC1; Ac5c = NC1(C(=O)O)CCCC1; Aze = O=C(O)[C@@H]1CCN1; Sar = CNCC(=O)O

Columns and labels:
[1] = molecular target: T1, Kras and SOS1 (biotin-tagged human Kras loaded with GDP, His-tagged human SOS1) (Homo sapiens, UniProt P01116, G12D); assay: Protein-protein interaction inhibition between Kras and SOS1 (KrasGl2D-SOS PPI) using AlphaScreen; type: binding; conditions: AlphaScreen; biotin-tagged human Kras loaded with GDP, His-tagged human SOS1; read-out: KRAS G12D-SOS PPI IC50
T1 construct: made in house; host or cells: E. coli (stated for Kras only)
Procedure, shortened: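 Kras was produced in E. coli, purified, then loaded with GDP. It was paired via streptavidin acceptor beads with His-SOS1 held on nickel donor beads, and proximity signal at 520-620 nm was read after 680 nm illumination.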

[2] = test system: Human pancreatic cancer cell line AsPC-1; assay: Measurement of AsPC-1 cell growth inhibition (AsPC-1 CGI); type: cell-based; conditions: 96 h
Procedure, shortened: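 AsPC-1 cells in 15% FBS RPMI-1640 were exposed to test compound for 96 hours at 37° C, with CellTiter-Glo as endpoint.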

T1 sequence (P01116 1-188 isoform P01116-2 G12D): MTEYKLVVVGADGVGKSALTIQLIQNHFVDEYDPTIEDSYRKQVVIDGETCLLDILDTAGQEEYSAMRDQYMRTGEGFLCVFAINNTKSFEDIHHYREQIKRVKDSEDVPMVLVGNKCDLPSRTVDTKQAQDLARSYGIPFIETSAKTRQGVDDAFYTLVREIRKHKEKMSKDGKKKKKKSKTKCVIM

Row | SMILES | IC50 [1] [nM] | IC50 [2] [nM]
1 | CC[C@H](C)[C@@H]1NC(=O)[C@H](CC(C)C)N(C)C(=O)C[C@@H](C(=O)N2CCCCC2)N(C)C(=O)[C@H](C(C)C)N(C)C(=O)C2(CCCC2)NC(=O)[C@@H]2CCCN2C(=O)[C@H](CCc2ccc(C(F)(F)F)c(Cl)c2)NC(=O)CN(C)C(=O)[C@H](Cc2ccc(C)cc2)N(C)C(=O)CN(C)C(=O)CN(C)C1=O [Compound 1594] ([NMeL]I[Sar][Sar][NMePhe(4-Me)][Sar][hPhe(3-Cl-4-CF3)]P[Ac5c][NMeV][NMeD]-Piperidide; lactam N-11) | 3.2 | 100 to 500
2 | CC[C@H](C)[C@@H]1NC(=O)[C@H](CC(C)C)N(C)C(=O)C[C@@H](C)N(C)C(=O)[C@H](C(C)C)N(C)C(=O)C2(CCCC2)NC(=O)[C@@H]2CCCN2C(=O)[C@H](CCc2ccc(C(F)(F)F)c(Cl)c2)NC(=O)CN(C)C(=O)[C@H](Cc2cccc(Br)c2)N(C)C(=O)CN(C)C(=O)CN(C)C1=O [Compound 1597] (cyclo([Ac5c][NMeV][NMedβ3hAla][NMeL]I[Sar][Sar][NMePhe(3-Br)][Sar][hPhe(3-Cl-4-CF3)]P)) | 11 | 50 to 100
3 | CC[C@H](C)[C@@H]1NC(=O)[C@H](CC(C)C)N(C)C(=O)C[C@@H](C(=O)N2CCCCC2)N(C)C(=O)[C@H](C(C)C)N(C)C(=O)C2(CCCC2)NC(=O)[C@@H]2CCCN2C(=O)[C@H](CCc2ccc(C(F)(F)F)c(Cl)c2)NC(=O)CN(C)C(=O)[C@H](Cc2ccccc2)N(C)C(=O)CN(C)C(=O)CN(C)C1=O [Compound 1598] ([NMeL]I[Sar][Sar][NMeF][Sar][hPhe(3-Cl-4-CF3)]P[Ac5c][NMeV][NMeD]-Piperidide; lactam N-11) | 9.2 | 100 to 500
4 | CC[C@H](C)[C@@H]1NC(=O)[C@H](CC(C)C)N(C)C(=O)C[C@@H](C)N(C)C(=O)[C@H](C(C)C)N(C)C(=O)C2(CCCC2)NC(=O)[C@@H]2CCCN2C(=O)[C@H](CCc2ccc(C(F)(F)F)c(Cl)c2)NC(=O)CN(C)C(=O)[C@H](Cc2ccccc2F)N(C)C(=O)CN(C)C(=O)CN(C)C1=O [Compound 1599] (cyclo([Ac5c][NMeV][NMedβ3hAla][NMeL]I[Sar][Sar][NMePhe(2-F)][Sar][hPhe(3-Cl-4-CF3)]P)) | 17 | 100 to 500
5 | CC[C@H](C)[C@@H]1NC(=O)[C@H](CC(C)C)N(C)C(=O)C[C@@H](C)NC(=O)[C@H](C(C)C)N(C)C(=O)C2(CCCC2)NC(=O)[C@@H]2CCCN2C(=O)[C@H](CCc2ccc(C(F)(F)F)c(Cl)c2)NC(=O)CN(C)C(=O)[C@H](Cc2ccc(F)cc2)N(C)C(=O)CN(C)C(=O)CN(C)C1=O [Compound 1602] (cyclo([Ac5c][NMeV][d(β3hA)][NMeL]I[Sar][Sar][NMePhe(4-F)][Sar][hPhe(3-Cl-4-CF3)]P)) | 6.3 | 100 to 500
6 | CC[C@H](C)[C@@H]1NC(=O)[C@H](CC(C)C)N(C)C(=O)C[C@@H](C)N(C)C(=O)[C@H](C(C)C)N(C)C(=O)C2(CCCC2)NC(=O)[C@@H]2CCCN2C(=O)[C@H](CCc2ccc(C(F)(F)F)c(Cl)c2)NC(=O)CN(C)C(=O)[C@H](Cc2ccccc2)N(C)C(=O)CN(C)C(=O)CN(C)C1=O [Compound 1604] (cyclo([Ac5c][NMeV][NMedβ3hAla][NMeL]I[Sar][Sar][NMeF][Sar][hPhe(3-Cl-4-CF3)]P)) | 5.8 | 50 to 100
7 | CC[C@H](C)[C@@H]1NC(=O)[C@H](CC(C)C)N(C)C(=O)C[C@@H](C)NC(=O)[C@H](C(C)C)N(C)C(=O)C2(CCCC2)NC(=O)[C@@H]2CCCN2C(=O)[C@H](CCc2ccc(C(F)(F)F)c(Cl)c2)NC(=O)CN(C)C(=O)[C@H](Cc2ccc(OC)cc2)N(C)C(=O)CN(C)C(=O)CN(C)C1=O [Compound 1605] (cyclo([Ac5c][NMeV][d(β3hA)][NMeL]I[Sar][Sar][NMeY](Me)[Sar][hPhe(3-Cl-4-CF3)]P)) | 12 | 100 to 500
8 | CC[C@H](C)[C@@H]1NC(=O)[C@H](CC)N(C)C(=O)C[C@@H](C)NC(=O)[C@H](C(C)C)N(C)C(=O)C2(CCCC2)NC(=O)[C@@H]2CCCN2C(=O)[C@H](CCc2ccc(C(F)(F)F)c(Cl)c2)NC(=O)CN(C)C(=O)[C@H](CC2CCCCC2)N(C)C(=O)[C@@H]2CCN2C(=O)[C@H](C)N(C)C1=O [Compound 1607] (cyclo([Ac5c][NMeV][d(β3hA)][NMeAbu]I[NMeA][Aze][NMeCha][Sar][hPhe(3-Cl-4-CF3)]P)) | 28 | 100 to 500
9 | CC[C@H](C)[C@@H]1NC(=O)[C@H](CC(C)C)N(C)C(=O)C[C@@H](C(=O)N2CCCCC2)N(C)C(=O)[C@H](C(C)C)N(C)C(=O)C2(CCCC2)NC(=O)[C@@H]2CCCN2C(=O)[C@H](CCc2ccc(C(F)(F)F)c(Cl)c2)NC(=O)CN(C)C(=O)[C@H](CCc2ccccc2)N(C)C(=O)CN(C)C(=O)CN(C)C1=O [Compound 1608] ([NMeL]I[Sar][Sar][NMehPhe][Sar][hPhe(3-Cl-4-CF3)]P[Ac5c][NMeV][NMeD]-Piperidide; lactam N-11) | 5.8 | 100 to 500
